pIC50: −log10 of the molar value. Several values for one entry are separate records, joined by “and”; a condition that tells them apart may be missing. Equal values may be shown once. Read-outs that look alike come from different tables or passages of the source. Marks after values point to notes of the source that are not given here. Numbered stars: 1 amine (or outer) side, 2 acyl side, 3 side chain; on linkers, the order of the positions; unused ones are H or OH. Bridge positions count the residues as written; N and C are the ends. Square brackets hold non-standard residues; d marks the D form. Peptide text beside a SMILES is read from it. I, II: the chains in the order shown. ξ: configuration not given here. Phe(4-tBu) = CC(C)(C)c1ccc(C[C@H](N)C(=O)O)cc1; Diglycolyl = O=C(COCC(=O)[*:2])[*:1]; NMeR = CN[C@@H](CCCNC(=N)N)C(=O)O; β3hE = N[C@@H](CCC(=O)O)CC(=O)O; Thr(3ξ) = CC(O)[C@H](N)C(=O)O; X1 = O=C(c1ccccc1C[*:2])[*:1]; Pen = CC(C)(S)[C@H](N)C(=O)O
What was measured:
α4β7 integrin = biological target: T1, α4β7 integrin (Homo sapiens, UniProt P13612+P26010); assay: Inhibition of MAdCAM1-mediated CD4+ T cell proliferation (plate bound anti-CD3 + MAdCAM1); format: cell-based
T1 construct: endogenous in cells; host or cells: primary human CD4+ T cells enriched from PBMCs of healthy donors
T1 sequence (P13612 34-1032): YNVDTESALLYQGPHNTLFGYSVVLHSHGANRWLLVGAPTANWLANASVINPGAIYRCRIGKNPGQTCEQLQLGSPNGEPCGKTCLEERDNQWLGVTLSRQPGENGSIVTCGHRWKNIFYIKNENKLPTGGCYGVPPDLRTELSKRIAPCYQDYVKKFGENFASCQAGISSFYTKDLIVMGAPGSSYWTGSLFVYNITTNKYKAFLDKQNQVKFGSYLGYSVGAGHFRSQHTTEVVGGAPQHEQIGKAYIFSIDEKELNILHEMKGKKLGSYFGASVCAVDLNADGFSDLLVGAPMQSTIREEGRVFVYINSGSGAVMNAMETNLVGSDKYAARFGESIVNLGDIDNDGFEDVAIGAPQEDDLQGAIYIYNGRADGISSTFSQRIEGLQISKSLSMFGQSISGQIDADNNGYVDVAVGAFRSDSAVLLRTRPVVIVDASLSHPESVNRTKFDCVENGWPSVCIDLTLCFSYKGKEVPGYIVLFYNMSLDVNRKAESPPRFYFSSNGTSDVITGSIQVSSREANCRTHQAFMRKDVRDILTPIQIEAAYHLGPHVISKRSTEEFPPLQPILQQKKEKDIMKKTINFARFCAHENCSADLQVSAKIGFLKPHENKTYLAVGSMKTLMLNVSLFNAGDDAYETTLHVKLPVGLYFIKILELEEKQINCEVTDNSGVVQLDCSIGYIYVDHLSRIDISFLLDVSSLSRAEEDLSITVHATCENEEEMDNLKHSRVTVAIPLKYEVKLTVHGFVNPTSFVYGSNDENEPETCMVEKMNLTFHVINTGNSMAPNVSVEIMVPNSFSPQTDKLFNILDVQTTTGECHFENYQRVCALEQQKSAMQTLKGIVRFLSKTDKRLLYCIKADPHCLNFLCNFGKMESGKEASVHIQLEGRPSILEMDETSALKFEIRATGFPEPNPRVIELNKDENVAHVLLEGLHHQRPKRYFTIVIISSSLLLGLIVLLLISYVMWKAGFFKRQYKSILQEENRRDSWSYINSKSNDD
T1 sequence (P26010 20-798): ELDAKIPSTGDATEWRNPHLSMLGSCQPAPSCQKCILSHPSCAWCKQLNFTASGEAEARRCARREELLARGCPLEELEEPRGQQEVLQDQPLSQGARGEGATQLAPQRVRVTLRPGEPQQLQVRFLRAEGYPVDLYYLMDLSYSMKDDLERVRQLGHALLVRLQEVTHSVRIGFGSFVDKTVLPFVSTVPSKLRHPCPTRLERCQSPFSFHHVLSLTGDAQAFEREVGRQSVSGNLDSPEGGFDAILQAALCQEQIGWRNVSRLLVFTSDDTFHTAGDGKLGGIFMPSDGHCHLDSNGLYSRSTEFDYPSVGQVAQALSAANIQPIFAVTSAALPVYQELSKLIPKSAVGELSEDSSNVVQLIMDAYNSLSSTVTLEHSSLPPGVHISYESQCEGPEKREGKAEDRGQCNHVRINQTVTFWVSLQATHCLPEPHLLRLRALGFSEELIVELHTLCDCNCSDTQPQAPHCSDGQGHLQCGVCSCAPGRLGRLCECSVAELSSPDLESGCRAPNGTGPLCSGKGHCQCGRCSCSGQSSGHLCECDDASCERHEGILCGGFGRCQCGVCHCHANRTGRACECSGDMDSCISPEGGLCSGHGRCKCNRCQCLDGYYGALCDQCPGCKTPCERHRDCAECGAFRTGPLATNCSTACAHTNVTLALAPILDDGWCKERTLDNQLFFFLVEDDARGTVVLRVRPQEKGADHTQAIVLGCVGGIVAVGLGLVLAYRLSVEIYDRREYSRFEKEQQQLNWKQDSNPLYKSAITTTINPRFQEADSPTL
Description: PBMCs were purified from healthy human donors and enrichment of CD4+ T cells was performed. […] Phenotype, distribution of T-helper (Th) subsets and % RO analyses were conducted by flow cytometry of freshly stained live samples.

[1] = Plasma and tissue exposure after single PO administration; format: in vivo, C57BL/6 female mice; conditions: single PO 30 mg/kg
Description: Twelve treatment-naïve C57BL/6 female mice were assigned to the study. […] At 1, 3, and 6 hours (h) post-dose, 4 mice/time point were subjected to terminal bleeds and euthanized; Peyer's patches (PPs), mesenteric lymph nodes (MLNs), small intestine, and colon were collected from each animal. The blood was processed to plasma; plasma and the tissue samples were submitted for pharmacokinetic (PK) analysis of Compound A levels using a qualified liquid chromatography tandem mass spectrometry (LC-MS/MS) method.
Processed plasma and tissue samples were analyzed on an AB/MDS Sciex API 4000 mass spectrometer. Positive ions were monitored in the multiple reaction-monitoring (MRM) mode. Quantitation was by peak area ratio.
PK data analysis was carried out using non-compartmental analysis (NCA) in Phoenix WinNonlin 8.1 (Certara USA Inc.). All concentration values below the lower limit of quantitation were treated as zero for the pharmacokinetic analysis. The maximum concentration (Cmax) and the apparent time to Cmax (tmax) were obtained by observation. The area under the concentration versus time curve (AUC) was obtained by the linear trapezoidal method. All concentration data and PK parameters were reported at up to three significant figures if the value was greater than one, and at up to three decimal places if the value was less than one. Time parameters were reported at up to two decimal places. The concentration data were plotted using Excel (Microsoft).

α4β7 = biological target: T2, α4β7 (Homo sapiens, UniProt P13612+P26010); assay: α4β7 internalization / surface expression by flow cytometry; format: cell-based
T2 construct: endogenous in cells
T2 sequence (P13612 34-1032): as the sequence (P13612 34-1032) above
T2 sequence (P26010 20-798): as the sequence (P26010 20-798) above
Source text: Blood samples from human donors were obtained from the Stanford Blood Center (Stanford, Calif.) under an RB-approved research protocol. Blood was drawn into BD Vacutainer sodium heparin blood collection tubes (BD Biosciences, Cat #362753). Peripheral blood mononuclear cells (PBMCs) were isolated from blood using a SepMate-50 tube and LymphoPrep per the manufacturer's protocol. CD4^+ T memory cells were enriched after PBMC isolation, using an EasySep kit (StemCell Technologies) per the manufacturer's protocol.
After incubation, an aliquot of cells from each reaction was stained for α4β7 expression.
(§1) After incubation, cells were washed extensively to remove excess peptide. For each reaction, an aliquot of cells was stained for α4β7 expression, while a separate aliquot was tested for adhesion to MAdCAM1.
An aliquot of cells were collected before and 24 h post peptide addition and stained for α4β7 expression. Afterwards, cells were extensively washed to remove excess peptide and incubated in fresh complete culture medium (without MnCl2) for an additional seven days. On day 1, 2, 4, 5, and 7 days after peptide washout, aliquots were stained for α4β7 expression.
Following peptide incubation, an aliquot of each reaction was stained for surface expression of α4β7 in preparation for flow cytometry. Cells were stained at 4° C. for 30 minutes, washed twice in DPBS containing 0.5% BSA (PBS/BSA), incubated with streptavidin BV421 (diluted 1:1000) at 4° C. for 30 minutes, washed twice in PBS/BSA, and then resuspended in PBS/BSA for analysis. Where relevant, a “fluorescence minus one” (FMO) sample was used as the staining control.
Samples were analyzed by flow cytometry on a BD (Franklin Lakes, N.J.) FACSVerse flow cytometer equipped with the following lasers: 405 nm (violet), 488 nm (blue), 561 nm (yellow-green), and 640 nm (red). CD4^+ T memory cells were identified as CD4^+, […], CD197^+ lymphocytes. α4β7 expression within CD4^+ T memory cells was identified based on staining with the Vedolizumab BV421 complex; staining was analyzed using BD FACSuite software, version 1.0.5. Where applicable, values were normalized to no-peptide controls and expressed as percentages to permit assessment of changes in the indicated parameter. Data were plotted and analyzed using Prism software (version 7; GraphPad, La Jolla, Calif.).

α4β7 / MAdCAM1 = biological target: T3, α4β7 / MAdCAM1 (Homo sapiens, UniProt P13612+P26010); assay: Adhesion of CD4+ T memory cells to MAdCAM1; format: cell-based
T3 construct: endogenous in cells
T3 sequence (P13612 34-1032): as the sequence (P13612 34-1032) above
T3 sequence (P26010 20-798): as the sequence (P26010 20-798) above
Description: as §1

[2] = Systemic absorption in animal studies; format: in vivo; conditions: oral
[3] = 28-day toxicology studies (NOEL); format: in vivo, rats and cynomolgus monkeys; conditions: standard allometric scaling and 10-fold safety margin
Description: The starting dose in the first in human single and multiple dose study was based on consideration of the no observed effect level (NOEL) from 28-day toxicology studies in rats and cynomolgus monkeys, and the receptor occupancy noted in cynomolgus monkeys. The NOEL determined in rats and monkeys translated to a human equivalent dose of approximately 145 mg using standard allometric scaling and a 10-fold safety margin. A starting dose of 100 mg was selected with initial stepwise escalations of approximately 3-fold.

[4] = Stability of dosing solutions; format: physicochemical; conditions: 50 mM phosphate buffer pH 7.4, stored at 2-8° C.
Description: Dose solutions were formulated in 50 mM phosphate buffer pH 7.4 and were prepared weekly by a qualified pharmacist.

[5] = male, human, in vivo; for Ctrough: po
Description: Dose escalation proceeded from 100 mg, 300 mg, 1000 mg, 1400 mg. Subjects in the 300 mg dose cohort received treatment in the fasted state on one occasion and following a high fat meal on a second occasion in a crossover fashion. The high fat meal consisted of two eggs fried in butter, two strips of bacon, two slices of toast with butter, four ounces of hash brown potatoes and 240 ml of whole milk. During Part 1, subjects refrained from food and drink except water for 10 hours before and for four hours after dosing with the exception of subjects in the 300 mg dose cohort during the fed treatment.
Part 2 was a randomized, placebo-controlled, double-blind multiple ascending dose study in 50 male subjects divided equally into 5 cohorts. […] Doses evaluated in Part 2 included 100 mg, 300 mg and 1000 mg. During Part 2, two cohorts of subjects (100 mg and 300 mg) received food approximately 30 minutes prior to each dose and another two cohorts of subjects (300 mg and 100 mg) refrained from food for 10 hours before and for 1 hour after dosing.
Study 1: The single and multiple ascending dose phase of the study consisted of sequential dose escalations in 10 subject per dose cohort. […] Dose solutions were formulated in 50 mM phosphate buffer pH 7.4 and were prepared weekly by a qualified pharmacist.
Blood samples for pharmacokinetics were collected predose and for 48 hours postdose following single doses. In the multiple ascending dose phase, blood samples were obtained on Days 1-3 and 14-16; on Days 8 samples were obtained predose, 4, and 12 hours. On Day 10 of the MAD, subjects were required to collect all urine for the 0-6, 6-12, 12-18, and 18-24 hour intervals postdose and on Day 11 subjects were required to collect fecal samples.
The drug and internal standard were extracted from the matrix by a protein precipitation procedure. The limit of quantitation was 0.2 ng/mL, 20 ng/mL, and 100 ng/mL in plasma, urine, and feces, respectively. […] Coefficient of determinations for the calibration curves were at least 0.99 for all matrices. The interassay accuracy (% bias) ranged from −2.2% to 1.0% for plasma, −3.8% to 9.0% for urine and −5.0 to 5.2% for feces. Interassay precision (% CV) ranged from 3.7% to 7.7% for plasma, 2.8% to 7.0% for urine, and 1.2% to 5.2% for feces.
Pharmacokinetic parameters were estimated by noncompartmental methods using Phoenix WinNonlin (Certara, Princeton N.J.). Peak plasma concentration (Cmax) and time to peak plasma concentration (Tmax) were observed values. The elimination rate was estimated from the slope of the least-squares regression on the terminal log-linear phase. Area under the plasma concentration-time curve from time zero to the last quantifiable concentration (AUCt) was estimated by a linear trapezoidal method and was extrapolated to infinity (AUC∞) by dividing the last quantifiable concentration b the elimination rate.

[6] = Donor 1, normalized to no-peptide control
[7] = Donor 2, normalized to no-peptide control

CC(C)C[C@@H]1NC(=O)[C@H](C(C)O)NC(=O)[C@H](CC(=O)O)NC(=O)[C@H](CO)NC(=O)[C@H](CCCNC(=N)N)N(C)C(=O)c2ccccc2CSC(C)(C)[C@@H](C(=O)N[C@@H](Cc2ccc(C(C)(C)C)cc2)C(=O)N[C@@H](CCC(=O)O)CC(=O)N[C@H](CCCCNC(=O)COCC(=O)NCCCC[C@@H](NC(=O)C[C@H](CCC(=O)O)NC(=O)[C@H](Cc2ccc(C(C)(C)C)cc2)NC(=O)[C@H]2NC(=O)[C@H](CC(C)C)NC(=O)[C@H](C(C)O)NC(=O)[C@H](CC(=O)O)NC(=O)[C@H](CO)NC(=O)[C@H](CCCNC(=N)N)N(C)C(=O)c3ccccc3CSC2(C)C)C(=O)O)C(=O)O)NC1=O (stereo partly drawn) [Compound A, ((2-Benzyl)-(N-Me-R)-Ser-Asp-Thr-Leu-Pen-(Phe(4-tBlu))-(β-homo-Glu)-(D-Lys)-OH)2 (SEQ ID NO: 5) and linker-DIG diglycolic acid] (I: [NMeR]SD[Thr(3ξ)]L[Pen][Phe(4-tBu)][β3hE][dK]-OH / II: [NMeR]SD[Thr(3ξ)]L[Pen][Phe(4-tBu)][β3hE][dK]-OH; linker I:9-II:9 via Diglycolyl; linker I:N-I:6, II:N-II:6 via X1)
pIC50 (α4β7 integrin): 8.36
pIC50 (α4β7 integrin; Average, read-out: IC50): 8.46
inhibition of MAdCAM1-mediated proliferation of CD4+ T-cells (α4β7 integrin; Compound A 1 uM, inactive analog 1 uM, vedolizumab 500 ng/mL, three days): completely abolished
pIC50 (α4β7 integrin; Donor 7, read-out: IC50): 8.80
pIC50 (α4β7 integrin; Donor 8, read-out: IC50): 8.43
pIC50 (α4β7 integrin; Donor 9, read-out: IC50): 8.28
pIC50 (α4β7 integrin; Donor 11, read-out: IC50): 8.10
Cmax ([1]; female, C57BL/6, mouse, mesenteric lymph nodes, read-out: mean Cmax, MLNs): 56.8 ng/g
AUC ([1]; female, C57BL/6, mouse, plasma): 95.4 ng·h/mL
Cmax ([1]; female, C57BL/6, mouse, plasma, read-out: mean Cmax, plasma): 19 ng/mL
Cmax ([1]; female, C57BL/6, mouse, small intestine, read-out: mean Cmax, small intestine): 13300 ng/g
mean AUC, MLNs [1]: 226 ng·h/g
mean AUC, PPs [1]: 37900 ng·h/g
mean AUC, colon [1]: 15700 ng·h/g
mean AUC, small intestine [1]: 48600 ng·h/g
mean Cmax in PPs and colon relative to small intestine [1]: approximately two-fold lower
time of peak exposure, MLNs [1]: 1 h
time of peak exposure, PPs [1]: 1 h
time of peak exposure, colon [1]: 6 h
time of peak exposure, plasma [1]: 3 h
time of peak exposure, small intestine [1]: 1 h
induced internalization of α4β7, time and concentration dependence (α4β7; CD4+ T memory cells, 10 nM for 0 to 48 h, 0-10 nM for 24 h): time (FIG. 15) and concentration (FIG. 16) dependent
Maximal α4β7 expression reduction (%) (α4β7; [6]): 53%
Maximal α4β7 expression reduction (%) (α4β7; [7]): 25%
Maximal α4β7 expression reduction (%) (α4β7; Mean of two donors): 39%
additional incubation after washout until α4β7 expression recovered to control levels (α4β7; human PBMCs, 10 nM 24 h then washout): 5 days and 4 to 5 days
α4β7 expression MFI difference compared to FMO control (4219 MFI) (α4β7; human PBMCs, 10 nM, 24 h): 20.6%
α4β7 expression as measured by MFI (α4β7; human PBMCs, 10 nM, 24 h, without MnCl2): 5090 MFI
Maximal adhesion reduction (%) (α4β7 / MAdCAM1; [6]): 38%
Maximal adhesion reduction (%) (α4β7 / MAdCAM1; [7]): 36%
Maximal adhesion reduction (%) (α4β7 / MAdCAM1; Mean of two donors): 37%
R-squared, α4β7 expression reduction vs adhesion reduction (α4β7 / MAdCAM1; first donor): 0.968
R squared, α4β7 expression reduction vs adhesion reduction (α4β7 / MAdCAM1; second donor): 0.940
systemic absorption [2]: < 1%
human equivalent dose of the NOEL [3]: approximately 145 mg
dosing solutions demonstrated to be stable [4]: 3 months
AUCt (ng · h/mL) ([5]; 100 mg): 12.9 ± 7.27^ ng · h/mL
AUCinf ([5]; 300 mg): 46.3 ± 19.2 ng·h/mL
AUCinf (ng · h/mL) ([5]; 300 mg): 43.9 ± 13.0^d ng · h/mL
Cmax (ng/mL) ([5]; 300 mg): 4.72 ± 1.85^ ng/mL
AUCt ([5]; 450 mg): 132 ± 106 ng·h/mL
AUCtau ([5]; 450 mg): 72.1 ± 54.7 ng·h/mL
Cmax ([5]; 450 mg): 5.98 ± 1.61 ng/mL
AUCinf ([5]; 900 mg): 160 ± 96.5 ng·h/mL
AUCt ([5]; 900 mg): 140 ± 74.4 ng·h/mL
AUCtau ([5]; 900 mg): 140 ± 74.4 ng·h/mL
Cmax ([5]; 900 mg): 22.8 ± 16.9 ng/mL
Ctrough ([5]; 450 mg): 3.25 ± 3.5 ng/mL
Ctrough ([5]; 900 mg): 1.78 ± 2.3 ng/mL
